Test system: HIV
Assay: Anti-HIV activity (MT-4 cells, MTT)
Format: cell-based
Conditions: Human immunodeficiency virus 1, MT4, 96 h, cultured 4 days
Protocol: Serial dilutions of a test sample were prepared in a 96-well microplate (50 μL/well). 2.5×10^5 cells/mL of a MT-4 cell suspension was dispensed at 100 μL/well to the plate containing the test sample. Then, an HIV virus solution was dispensed at 50 μL/well. The plate was mixed with a plate mixer and cultured for 4 days in a CO2 incubator. An MTT (3-(4,5-dimethylthiazol-2-yl)-2,5-diphenyltetrazolium bromide) solution was dispensed at 30 μL/well. The plate was reacted for 1 hour in a CO2 incubator. 150 μL of the supernatant was removed from each well so as not to take up the cells. 150 μL of a cell lysis solution was added to each well and well mixed with a plate mixer until the cells were completely lysed. The absorbance of the mixed plate was measured at two wavelengths of 560 nm and 690 nm with a microplate reader.

Structure (SMILES) | EC50
CCN1C(=O)c2c(O)c(=O)c(C(=O)NCc3ccc(F)cc3F)cn2N2CCOC[C@@H]12 [Compound I-001] | 0.52 nM
CCN1C(=O)c2c(O)c(=O)c(C(=O)NCc3ccc(F)c(Cl)c3F)cn2N2CCCC[C@@H]12 [Compound I-003] | 1.4 nM
CCN1C(=O)c2c(O)c(=O)c(C(=O)NCc3ccc(F)c(Cl)c3F)cn2N2CCOC[C@@H]12 [Compound I-004] | 0.56 nM
CCN1C(=O)c2c(O)c(=O)c(C(=O)NCc3ccc(F)c(Cl)c3F)cn2N2CCC[C@@H]12 [Compound I-005] | 1.3 nM
CCN1C(=O)c2c(O)c(=O)c(C(=O)NCc3cc(Cl)c(F)cc3F)cn2N2CCCC[C@@H]12 [Compound I-007] | 4 nM
CCN1C(=O)c2c(O)c(=O)c(C(=O)NCc3ccc(F)cc3F)cn2N2CCC[C@@]12C [Compound I-008] | 2 nM
CCN1C(=O)c2c(O)c(=O)c(C(=O)NCc3ccc(F)cc3F)cn2N2CCN(C(=O)OC(C)(C)C)C[C@@H]12 [Compound I-009] | 1.2 nM
CCN1C(=O)c2c(O)c(=O)c(C(=O)NCc3ccc(F)cc3F)cn2N2CCNC[C@@H]12 [Compound I-010] | 1.9 nM
CCN1C(=O)c2c(O)c(=O)c(C(=O)NCc3ccc(F)c(C)c3F)cn2N2CCCC[C@@H]12 [Compound I-012] | 4 nM
CCN1C(=O)c2c(O)c(=O)c(C(=O)NCc3ccc(F)cc3F)cn2N2CCN(C)C[C@@H]12 [Compound I-013] | 5.6 nM
CCN1C(=O)c2c(O)c(=O)c(C(=O)NCc3ccc(Br)cc3F)cn2N2CCCC[C@@H]12 [Compound I-014] | 10 nM
COCCN1C(=O)c2c(O)c(=O)c(C(=O)NCc3ccc(F)cc3F)cn2N2CCCC[C@@H]12 [Compound I-016] | 1.4 nM
CCN1C(=O)c2c(O)c(=O)c(C(=O)NC3(c4ccc(F)cc4F)CC3)cn2N2CCCC[C@@H]12 [Compound I-017] | 6.1 nM
CCN1C(=O)c2c(O)c(=O)c(C(=O)NCc3ccc(F)cc3F)cn2N2Cc3ccccc3[C@@H]12 [Compound I-018] | 2.1 nM
CCN1C(=O)c2c(O)c(=O)c(C(=O)NCc3cccc(Cl)c3F)cn2N2CCCC[C@@H]12 [Compound I-019] | 1.8 nM
CCN1C(=O)c2c(O)c(=O)c(C(=O)NCc3ccc(F)cc3F)cn2N2CCCC(C)(C)[C@@H]12 [Compound I-020] | 1.3 nM
CCCN1C(=O)c2c(O)c(=O)c(C(=O)NCc3ccc(F)cc3F)cn2N2CCCC[C@@H]12 [Compound I-021] | 1.1 nM
O=C(NCc1ccc(F)cc1F)c1cn2c(c(O)c1=O)C(=O)N(C[C@H]1CCCO1)[C@@H]1CCCCN12 [Compound I-022] | 1.1 nM
O=C(NCc1ccc(F)cc1F)c1cn2c(c(O)c1=O)C(=O)N(C[C@@H]1CCCO1)[C@@H]1CCCCN12 [Compound I-023] | 0.62 nM
COCCCN1C(=O)c2c(O)c(=O)c(C(=O)NCc3ccc(F)cc3F)cn2N2CCCC[C@@H]12 [Compound I-024] | 2.9 nM
CCN1C(=O)c2c(O)c(=O)c(C(=O)NCc3ccc(F)c(F)c3F)cn2N2CCCC[C@@H]12 [Compound I-025] | 1.9 nM
O=C(NCc1ccc(F)cc1F)c1cn2c(c(O)c1=O)C(=O)N(C1CCCC1)[C@@H]1CCCCN12 [Compound I-026] | 3.5 nM
CCN1C(=O)c2c(O)c(=O)c(C(=O)NCc3ccc(F)cc3F)cn2N2CCc3ccccc3[C@@H]12 [Compound I-027] | 0.89 nM

Structure (SMILES) | EC50
O=C(NCc1ccc(F)cc1F)c1cn2c(c(O)c1=O)C(=O)N(CC1CC1)[C@@H]1CCCCN12 [Compound I-028] | 1.9 nM
CCN1C(=O)c2c(O)c(=O)c(C(=O)N[C@H](C)c3ccc(F)cc3F)cn2N2CCCC[C@@H]12 [Compound I-029] | 12 nM
CCN1C(=O)c2c(O)c(=O)c(C(=O)N[C@@H](C)c3ccc(F)cc3F)cn2N2CCCC[C@@H]12 [Compound I-030] | 36 nM
O=C(NCc1ccc(F)cc1F)c1cn2c(c(O)c1=O)C(=O)N(C1CC1)[C@@H]1CCCCN12 [Compound I-031] | 0.69 nM
CCN1C(=O)c2c(O)c(=O)c(C(=O)NCc3ccc(F)cc3F)cn2N2CCCCC[C@@H]12 [Compound I-032] | 1.2 nM
CCN1C(=O)c2c(O)c(=O)c(C(=O)NCc3cccc(Cl)c3Cl)cn2N2CCCC[C@@H]12 [Compound I-033] | 2.5 nM
CCN1C(=O)c2c(O)c(=O)c(C(=O)NCc3ccc(F)c(Cl)c3)cn2N2CCCC[C@@H]12 [Compound I-034] | 1.3 nM
CCN1C(=O)c2c(O)c(=O)c(C(=O)NCc3ccc(Cl)cc3F)cn2N2CCCC[C@@H]12 [Compound I-035] | 3.2 nM
CCN1C(=O)c2c(O)c(=O)c(C(=O)NCc3cc(F)c(F)cc3F)cn2N2CCCC[C@@H]12 [Compound I-036] | 1.4 nM
CCN1C(=O)c2c(O)c(=O)c(C(=O)NCc3cc(F)c(F)c(F)c3)cn2N2CCCC[C@@H]12 [Compound I-037] | 2 nM
CCN1C(=O)c2c(O)c(=O)c(C(=O)NCc3ccc(F)cc3Cl)cn2N2CCCC[C@@H]12 [Compound I-038] | 0.72 nM
COC[C@H](C)N1C(=O)c2c(O)c(=O)c(C(=O)NCc3ccc(F)cc3F)cn2N2CCCC[C@@H]12 [Compound I-039] | 4.4 nM
COC[C@@H](C)N1C(=O)c2c(O)c(=O)c(C(=O)NCc3ccc(F)cc3F)cn2N2CCCC[C@@H]12 [Compound I-040] | 0.7 nM
C[C@@H](N1C(=O)c2c(O)c(=O)c(C(=O)NCc3ccc(F)cc3F)cn2N2CCCC[C@@H]12)C(F)(F)F [Compound I-041] | 0.66 nM
CCN1C(=O)c2c(O)c(=O)c(C(=O)NCc3cccc(F)c3F)cn2N2CCCC[C@@H]12 [Compound I-042] | 0.72 nM
O=C(NCc1ccc(F)cc1F)c1cn2c(c(O)c1=O)C(=O)N(Cc1ccc(F)cc1F)[C@@H]1CCCCN12 [Compound I-043] | 3.5 nM
O=C(NCc1ccc(F)cc1F)c1cn2c(c(O)c1=O)C(=O)N([C@@H]1C[C@@H]1F)[C@@H]1CCCCN12 [Compound I-044] | 1.2 nM
O=C(NCc1ccc(F)cc1F)c1cn2c(c(O)c1=O)C(=O)N(CCF)[C@@H]1CCCCN12 [Compound I-045] | 0.73 nM
O=C(NCc1ccc(F)cc1F)c1cn2c(c(O)c1=O)C(=O)N(CC(F)F)[C@@H]1CCCCN12 [Compound I-046] | 0.43 nM
O=C(NCc1ccc(F)cc1F)c1cn2c(c(O)c1=O)C(=O)N(CCCF)[C@@H]1CCCCN12 [Compound I-047] | 1.5 nM
CCN1C(=O)c2c(O)c(=O)c(C(=O)NCc3c(F)ccc(Cl)c3F)cn2N2CCCC[C@@H]12 [Compound I-048] | 1.2 nM
CCN1C(=O)c2c(O)c(=O)c(C(=O)NCc3c(Cl)ccc(Cl)c3F)cn2N2CCCC[C@@H]12 [Compound I-049] | 2.3 nM
O=C(NCc1ccc(F)cc1F)c1cn2c(c(O)c1=O)C(=O)N(C1CC(F)(F)C1)[C@@H]1CCCCN12 [Compound I-051] | 0.72 nM

Structure (SMILES) | EC50
O=C(NCc1ccc(F)cc1F)c1cn2c(c(O)c1=O)C(=O)N(C1CCC(F)(F)CC1)[C@@H]1CCCCN12 [Compound I-052] | 5.5 nM
O=C(NCc1ccc(F)cc1F)c1cn2c(c(O)c1=O)C(=O)N(CC(F)(F)F)[C@@H]1CCCCN12 [Compound I-053] | 0.94 nM
CC(C)N1C(=O)c2c(O)c(=O)c(C(=O)NCc3c(F)cc(F)cc3F)cn2N2C[C@@H](C)CC[C@@H]12 [II-001] | 1 nM
COC[C@@H](C)N1C(=O)c2c(O)c(=O)c(C(=O)NCc3cccc(Cl)c3F)cn2N2CC[C@H](C)C[C@@H]12 [II-002] | 0.77 nM
CCN1C(=O)c2c(O)c(=O)c(C(=O)NC3(c4cccc(Cl)c4F)CC3)cn2N2CCCC[C@@H]12 [II-003] | 6.2 nM
COC[C@@H](C)N1C(=O)c2c(O)c(=O)c(C(=O)NCc3cccc(Cl)c3F)cn2N2CCCC[C@@H]12 [II-006] | 0.58 nM
C[C@H]1CC[C@H]2N(C)C(=O)c3c(O)c(=O)c(C(=O)NCc4c(F)cc(F)cc4F)cn3N2C1 [II-007] | 0.62 nM
CCN1C(=O)c2c(O)c(=O)c(C(=O)NCc3cccc(Cl)c3F)cn2N2[C@H](C)CC[C@@H]12 [II-008] | 1.5 nM
COC[C@@H]1CC[C@H]2N(C(C)C)C(=O)c3c(O)c(=O)c(C(=O)NCc4ccc(F)cc4F)cn3N12 [II-010] | 1 nM
COC[C@@H]1CC[C@H]2N(C(C)C)C(=O)c3c(O)c(=O)c(C(=O)NCc4c(F)cc(F)cc4F)cn3N12 [II-011] | 0.49 nM
CCN1C(=O)c2c(O)c(=O)c(C(=O)N[C@H](C)c3cccc(Cl)c3F)cn2N2CCCC[C@@H]12 [II-012] | 3.6 nM
C[C@@H]1CCC[C@H]2N(C)C(=O)c3c(O)c(=O)c(C(=O)NCc4cccc(Cl)c4F)cn3N12 [II-014] | 0.55 nM
CCN1C(=O)c2c(O)c(=O)c(C(=O)NCc3c(F)cc(F)cc3F)cn2N2C[C@@H]3CCC[C@@H](C3)[C@@H]12 [II-016] | 0.65 nM
CCN1C(=O)c2c(O)c(=O)c(C(=O)NCc3ccc(F)cc3F)cn2N2CCC3(CCC3)C[C@@H]12 [II-017] | 1.6 nM
CCN1C(=O)c2c(O)c(=O)c(C(=O)NCc3nccc(Cl)c3F)cn2N2CCCC[C@@H]12 [II-019] | 0.23 nM
CCN1C(=O)c2c(O)c(=O)c(C(=O)NCc3ccc(F)cc3F)cn2N2[C@@H]3CCC[C@@H]3C[C@@H]12 [II-025] | 1.1 nM
CN1C(=O)c2c(O)c(=O)c(C(=O)NCc3ccc(Cl)cc3F)cn2N2Cc3ccccc3[C@@H]12 [II-029] | 3.8 nM
CCN1C(=O)c2c(O)c(=O)c(C(=O)NCc3ccc(F)cc3F)cn2N2[C@H]3CCC[C@H]3CC[C@@H]12 [II-030] | 0.86 nM
CCN1C(=O)c2c(O)c(=O)c(C(=O)NCc3cccc(Cl)c3F)cn2N2[C@H](C)CCC[C@@H]12 [II-032] | 1.5 nM
CN1C(=O)c2c(O)c(=O)c(C(=O)NCc3ccc(F)c(Cl)c3F)cn2N2CCCC[C@@H]12 [II-033] | 0.22 nM
CCOC[C@@H](C)N1C(=O)c2c(O)c(=O)c(C(=O)NCc3ccc(F)cc3F)cn2N2CCCC[C@@H]12 [II-034] | 0.73 nM
